Counter-ions that a name gives are not always drawn. Like-named read-outs stand apart in the source and are kept apart here. One block for each compound: values may come before it.
Tests used:
[1] = test system: female rats; assay: in vivo antifertility property (implantation and/or fetal resorption) in rats; set-up: species or system rat (Sprague Dawley); details: Rattus norvegicus, po, administered as the fumarate or hemisuccinate salt, read-out: dose at which fertility is inhibited
Method: Mated female rats (Sprague Dawley) weighing approximately 180-200 g were obtained on the day of coitus. The presence of sperm in the vagina was used as a verification that mating had occurred. On the day of receipt, day of coitus or day 0 of `pregnancy`, the rats are divided into two groups of six to eight rats per group. One group is given various doses of the test compound p.o., suspended in 0.2 ml of carboxymethylcellulose (CMC) beginning on day 1 of `pregnancy` and continuing through day 9 of `pregnancy`. These same rats receive a daily injection of 0.1 ml of sesame oil s.c. over this same time frame. The second group of rats receive the vehicles, CMC p.o. and oil s.c., on days 1-9 of `pregnancy`. All of the rats are sacrificed on day 12 or 13 of `pregnancy`, and their uteri are exposed and examined for fetuses and/or resorption sites.

[2] = test system: dimethylbenzanthracene (DMBA)-induced mammary tumors; assay: antitumor activity in DMBA-induced mammary tumors in rats; assay type: in vivo, female Sprague-Dawley rats; details: Rattus norvegicus, po, read-out: effective daily dose (antitumor)
From the text: Exp. Biol. Med. 160, 296-301 (1979)].

[3] = test system: estrogen synthesis; assay: in vivo inhibition of aromatase activity: inhibition of estrogen synthesis in rats (ovarian estrogen content); details: po, female rat, PMS/hCG and androstenedione treated; read-out: dose at which estrogen synthesis is inhibited
Method: Twenty-one-day-old female rats are injected subcutaneously with 10 IU pregnant mare serum gonadotropin (PMS). Two days later the same rats are injected subcutaneously with 30 IU human chorionic gonadrotropin (hCG). On the day following the hCG treatment the rats are injected subcutaneously with either propylene glycol (0.2 ml; […].) or with various doses of the test compound. […] Four hours after the injection of androstenedione the rats are sacrificed and their ovaries removed and trimmed free of adhering tissue and stored in pairs at -40° C. To determine the total estrogen content of the ovaries, 1.5 ml of 0.05M aqueous potassium phosphate buffer, pH 7.4, and 0.2 ml of 0.1N aqueous sodium hydroxide are added to the tissues which are then homogenized. The homogenate is extracted with 15 ml of diethyl ether, 5 ml aliquots are radioimmunoassayed with antiserum having 100% cross reactivity with estrone, estradiol and estriol. The ovarian estrogen content is expressed as ng estrogen/pair of ovaries. The inhibition of estrogen synthesis, indicative of aromatase inhibition, is calculated from the ovarian estrogen content in treated as compared to control animals.

[4] = biological target: T1, aromatase (Homo sapiens, UniProt P11511); assay: in vitro inhibition of aromatase activity (human placental microsomes, aromatization of [1,2-^3 H]-androstenedione); assay type: biochemical; details: 20 minutes at 37° C
T1 construct: A microsomal fraction is prepared from human placenta by the method essentially as described by Thompson and Siiteri; from tissue; host or cells: human placenta, microsomal fraction (lyophilized)
T1 sequence (P11511 1-503): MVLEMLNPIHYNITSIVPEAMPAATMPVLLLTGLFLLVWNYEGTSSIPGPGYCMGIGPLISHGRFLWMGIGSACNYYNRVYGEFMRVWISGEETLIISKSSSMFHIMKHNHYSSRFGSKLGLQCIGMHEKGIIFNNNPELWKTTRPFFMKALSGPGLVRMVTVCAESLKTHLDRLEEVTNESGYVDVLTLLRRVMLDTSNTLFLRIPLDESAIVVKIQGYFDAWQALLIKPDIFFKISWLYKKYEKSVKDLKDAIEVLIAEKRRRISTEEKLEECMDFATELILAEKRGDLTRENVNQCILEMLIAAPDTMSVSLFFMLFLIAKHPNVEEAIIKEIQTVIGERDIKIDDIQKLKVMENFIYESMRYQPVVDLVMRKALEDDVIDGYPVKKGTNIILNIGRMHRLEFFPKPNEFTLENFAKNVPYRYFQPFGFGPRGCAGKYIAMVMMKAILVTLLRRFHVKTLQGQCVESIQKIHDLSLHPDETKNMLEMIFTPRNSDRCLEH
Method: The microsomal preparation so obtained is lyophilized and stored at -40° C.
The assay is conducted substantially as described by Thompson and Siiteri. The human placental microsomes are added to [1,2-^3 H]-androstenedioneand incubated for 20 minutes at 37° C. The amount of aromatization of the labelled substrate is detected by the […] of ^3 H2 O into the incubation medium. The substrate is removed by chloroform extraction, followed by adsorption to charcoal in suspension. The charcoal is removed by centrifugation and the steroid-free medium is counted in a liquid scintillation counter. Compounds are tested for aromatase inhibitory activity by adding them to the incubation medium prior to the addition of the microsomes. The relative cpm obtained with and without the inhibitor is used to calculate the percent inhibition of the aromatization of androstenedione to estrone.

[5] = test system: female dogs; assay: cessation of proestrus and estrus in female dogs treated from proestrus; assay type: in vivo, dog
From the text: (§1) Proestrus, for example in the bitch, commences with a vaginal discharge, followed by attraction of the male resulting from estrogen secretion and lasts on an average of 9 days. The females only permit mating during estrus. The compounds of the present invention, when administered to female dogs e.g. on the second day of proestrus, terminate all physical signs of proestrus andestrus and mating will be prevented.
(§2) For example, ten mature beagles during anestrus with known breeding histories were administered e.g. 10.0 mg/kg p.o. daily of the compound of example 46 for 224 days. […] Ten female beagles with known breeding histories were administered 10.0 mg/kg p.o. daily of the compound of example 46 for 91 days beginning on the first day proestrus was noted.

[6] = test system: female dogs; assay: prevention of proestrus and estrus in female dogs treated during anestrus; assay type: in vivo, dog; details: 10.0 mg/kg p.o. daily for 224 days, ten mature beagles during anestrus; controls exhibited proestrus and estrus at least once
From the text: as §1, §2

Structure (SMILES): N#Cc1ccc(C(c2ccc(C#N)cc2)n2ccnc2)cc1 [Example 2a, 4-[alpha-(4-cyanophenyl)-1-imidazolylmethyl]-benzonitrile]
minimal effective dose [1]: ~4000 µg/kg
minimal effective dose [2]: ~0.1 mg/kg/day

IC50 [4]: ~16 nM
Structure (SMILES): N#Cc1ccc(C(c2cccnc2)n2ccnc2)cc1 (stereo not drawn) [Example 5e, 4-[alpha-(3-pyridyl)-1-imidazolylmethyl]-benzonitrile]
minimal effective dose [3]: ~3 µg/kg

Structure (SMILES): N#Cc1ccc(C(c2cccnc2)n2ccnc2)cc1 (stereo not drawn) [Example 46, sulfate salt of 4-[alpha-(3-pyridyl)-1-imidazolylmethyl]benzonitrile]
signs of proestrus ([5]; 10.0 mg/kg p.o. daily for 91 days beginning on first day of proestrus, ten female beagles): All signs of proestrus disappeared
acceptance of a male ([5]; 10.0 mg/kg p.o. daily for 91 days, ten female beagles, male presented 9 and 11 days later): no dogs accepted a male
proestrus during remainder of treatment ([5]; 10.0 mg/kg p.o. daily, remainder of the 91 days, ten female beagles): Proestrus was not observed
acceptance of a male dog ([5]; 10.0 mg/kg p.o. daily, 9 and 11 days following the initial sign of proestrus): refused to accept a male dog
dogs exhibiting estrus during recovery ([5]; 190 days recovery period after 91 days at 10.0 mg/kg p.o. daily): eight of ten dogs exhibited estrus
signs of proestrus [6]: No signs of proestrus were observed

IC50 [4]: ~3 nM
Structure (SMILES): N#Cc1ccc(CC(c2ccc(C#N)cc2)n2ccnc2)cc1 (stereo not drawn) [Example 11f, 4-[alpha-(4-cyanobenzyl)-1-imidazolylmethyl]benzonitrile]
minimal effective dose [3]: ~3 µg/kg

Structure (SMILES): N#Cc1ccc(C(c2ccc(C#N)cc2)n2cncn2)cc1 [Example 20a, 4-[alpha-(4-cyanophenyl)-1-(1,2,4-triazolyl)-methyl]benzonitrile]
minimal effective dose ([2]; daily, p.o., rats, DMBA-induced mammary tumors): ~0.03 mg/kg/day

Reference: US5112845A, “Alpha-heterocycle substituted tolunitriles” (Ciba-Geigy Corporation, priority 1990, dated 1992)
